Experiments:
soybean = test: Test C pre-/postemergence herbicide test; format: in vivo, Glycine max
Method in brief: (§1)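 Greenhouse pots; formulation = non-phytotoxic solvent mix + surfactant. PRE onto seeds in loam:sand; POST at 1–4 leaves (2–18 cm) in peat moss/vermiculite medium. Read-out: visual % control vs untreated, day 13–15.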

ducksalad = test: Test B flooded paddy test; format: in vivo, Heteranthera limosa; conditions: 500 g ai/ha, Flood; scale of 0 to 100 where 0 is no effect and 100 is complete control
Method in brief: (§2)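 Paddy-water application at a 3 cm flood, young plants having two leaves. Water level maintained; greenhouse, 13–15 days; visual 0–100 control rating.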

corn [1] = test: Test C pre-/postemergence herbicide test; format: in vivo, Zea mays
Method in brief: as §1

rice = test: Test B flooded paddy test; format: in vivo, Oryza sativa; conditions: 500 g ai/ha, Flood; scale of 0 to 100 where 0 is no effect and 100 is complete control
Method in brief: as §2

oilseed rape = test: Test C pre-/postemergence herbicide test; format: in vivo, Brassica napus
Method in brief: as §1

nutsedge, yellow = test: Test C pre-/postemergence herbicide test; format: in vivo, Cyperus esculentus
Method in brief: as §1

barnyardgrass [2] = test: Test C pre-/postemergence herbicide test; format: in vivo, Echinochloa crus-galli
Method in brief: as §1

barnyardgrass [3] = test: Test A pre-/postemergence herbicide test; format: in vivo, Echinochloa crus-galli
Method in brief: (§3)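 Greenhouse pot test with pre- and postemergence application of surfactant-containing solvent formulations. Postemergence plants were 2–10 cm, one- to two-leaf stage. Response scored visually after ~10 days, 0 (no effect) to 100 (complete control).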

pigweed = test: Test A pre-/postemergence herbicide test; format: in vivo, Amaranthus retroflexus
Method in brief: as §3

corn [4] = test: Test A pre-/postemergence herbicide test; format: in vivo, Zea mays; conditions: Postemergence
Method in brief: as §3

foxtail, giant = test: Test C pre-/postemergence herbicide test; format: in vivo, Setaria faberii
Method in brief: as §1

barnyardgrass [5] = test: Test B flooded paddy test; format: in vivo, Echinochloa crus-galli; conditions: 500 g ai/ha, Flood; scale of 0 to 100 where 0 is no effect and 100 is complete control
Method in brief: as §2

[6] = Postemergence, 31 g ai/ha, scale 0 to 100 (0 no effect, 100 complete control)
[7] = Postemergence, 62 g ai/ha, scale 0 (no effect) to 100 (complete control)
[8] = Postemergence, 125 g ai/ha, scale 0 to 100 (0 no effect, 100 complete control)
[9] = Postemergence, 250 g ai/ha, scale 0 to 100 (0 no effect, 100 complete control)
[10] = Preemergence, 62 g ai/ha, scale 0 to 100 (0 no effect, 100 complete control)
[11] = Preemergence, 125 g ai/ha, scale 0 to 100
[12] = Preemergence, 31 g ai/ha, scale 0 to 100, 0 is no effect and 100 is complete control
[13] = Postemergence, 125 g ai/ha, visual rating on 0 to 100 scale (0 no effect, 100 complete control), approx. 10 days
[14] = Postemergence, 500 g ai/ha, 0 to 100 scale (0 no effect, 100 complete control)
[15] = Preemergence, 125 g ai/ha, 0 to 100 scale where 0 is no effect and 100 is complete control
[16] = Preemergence, 500 g ai/ha, visual rating on 0 to 100 scale (0 no effect, 100 complete control)

## Cc1cccc(NC(=O)C2C(=O)NCC2c2cccc(C(F)(F)F)c2)c1 (centres unmarked) [Compound 317]
soybean; [6]
  Plant response rating, Soybean: 0
soybean; [7]
  Plant response rating, Soybean: 0
soybean; [8]
  Plant response rating, Soybean: 0
soybean; [9]
  Plant response rating, Soybean: 0
soybean; [10]
  Soybean plant response rating: 0
soybean; [11]
  Plant response rating, Soybean: 0
ducksalad
  Plant response rating, Ducksalad: 80
Corn [1]; [6]
  Plant response rating, Corn: 0
Corn [1]; [7]
  Plant response rating, Corn: 0
Corn [1]; [8]
  Plant response rating, Corn: 0
Corn [1]; [9]
  Plant response rating, Corn: 0
Corn [1]; [12]
  Corn plant response rating: 0
Corn [1]; [10]
  Corn plant response rating: 0
Corn [1]; [11]
  Plant response rating, Corn: 25
Corn [1]; Preemergence, 250 g ai/ha
  Plant response rating (scale of 0 to 100), Corn: 30
rice
  Plant response rating, Rice: 0
Oilseed rape; [6]
  Plant response rating, Oilseed Rape: 0
Oilseed rape; [7]
  Plant response rating, Oilseed Rape: 0
Oilseed rape; [8]
  Plant response rating, Oilseed Rape: 0
Oilseed rape; [9]
  Plant response rating, Oilseed Rape: 0
Oilseed rape; [12]
  Oilseed Rape plant response rating: 0
Oilseed rape; [10]
  Oilseed Rape plant response rating: 0
Oilseed rape; [11]
  Plant response rating, Oilseed Rape: 0
Oilseed rape; Preemergence, 250 g ai/ha
  Plant response rating (scale of 0 to 100), Oilseed Rape: 0
nutsedge, yellow; [6]
  Plant response rating, Nutsedge, Yellow: 0
nutsedge, yellow; [7]
  Plant response rating, Nutsedge, Yellow: 0
nutsedge, yellow; [8]
  Plant response rating, Nutsedge, Yellow: 0
nutsedge, yellow; [9]
  Plant response rating, Nutsedge, Yellow: 0
nutsedge, yellow; [12]
  Nutsedge, Yellow plant response rating: 0
nutsedge, yellow; [10]
  Nutsedge, Yellow plant response rating: 0
nutsedge, yellow; [11]
  Plant response rating, Nutsedge, Yellow: 20
nutsedge, yellow; Preemergence, 250 g ai/ha
  Plant response rating (scale of 0 to 100), Nutsedge, Yellow: 70
Barnyardgrass [2]; [6]
  Plant response rating, Barnyardgrass: 0
Barnyardgrass [2]; [7]
  Plant response rating, Barnyardgrass: 0
Barnyardgrass [2]; [8]
  Plant response rating, Barnyardgrass: 25
Barnyardgrass [2]; [9]
  Plant response rating, Barnyardgrass: 70
Barnyardgrass [2]; [12]
  Barnyardgrass plant response rating: 90
Barnyardgrass [2]; [10]
  Barnyardgrass plant response rating: 90
Barnyardgrass [2]; Preemergence, 125 g ai/ha, scale 0 to 100 (0 no effect, 100 complete control)
  Plant response rating, Barnyardgrass: 95
Barnyardgrass [2]; Preemergence, 250 g ai/ha
  Plant response rating (scale of 0 to 100; 0 is no effect, 100 is complete control), Barnyardgrass: 95
Barnyardgrass [3]; [13]
  Plant response rating, Barnyardgrass: 80
Barnyardgrass [3]; [14]
  Plant response rating, Barnyardgrass: 90
Barnyardgrass [3]; [15]
  Plant response rating, Barnyardgrass: 90
Barnyardgrass [3]; [16]
  Barnyardgrass plant response rating: 90
pigweed; [13]
  Plant response rating, Pigweed: 0
pigweed; [14]
  Plant response rating, Pigweed: 0
pigweed; [15]
  Plant response rating, Pigweed: 0
pigweed; [16]
  Pigweed plant response rating: 0
Corn [4]; 125 g ai/ha, visual rating on 0 to 100 scale (0 no effect, 100 complete control), approx. 10 days
  Plant response rating, Corn: 0
Corn [4]; 500 g ai/ha, 0 to 100 scale (0 no effect, 100 complete control)
  Plant response rating, Corn: 20
foxtail, giant; [6]
  Plant response rating, Foxtail, Giant: 0
foxtail, giant; [7]
  Plant response rating, Foxtail, Giant: 0
foxtail, giant; [8]
  Plant response rating, Foxtail, Giant: 0
foxtail, giant; [9]
  Plant response rating, Foxtail, Giant: 50
foxtail, giant; [12]
  Foxtail, Giant plant response rating: 80
foxtail, giant; [10]
  Foxtail, Giant plant response rating: 90
foxtail, giant; [11]
  Plant response rating, Foxtail, Giant: 90
foxtail, giant; Preemergence, 250 g ai/ha
  Plant response rating (scale of 0 to 100), Foxtail, Giant: 95
Barnyardgrass [5]
  Plant response rating, Barnyardgrass: 75
